{"source": "patent US20250043250A1", "about": "“COMPOSITIONS AND METHODS FOR EXPANDING KERATINOCYTES” (STEMCELL Technologies Canada Inc., priority 2021, published 2025)", "key": {"[1]": {"test_system": "PSC-derived keratinocytes", "assay": "Adherent monolayer culture of dissociated PSC-derived hair-bearing skin organoid cells: colony emergence and morphology", "format": "cell-based, human", "conditions": "H9 ES and 1C iPS derived cells, HKGS medium supplemented with the small molecule(s) (FIG. 11)", "description": "The aggregates of Example 1 were plated under non-adherent conditions in an AggreWell™ or a 96-well plate, and cultured for 12 days in a skin organoid induction medium, such as STEMdiff™ Skin Organoid Induction Medium (STEMCELL Technologies). Following, the skin organoids are transferred into STEMdiff™ Skin Organoids Maturation Medium (STEMCELL Technologies) for at least 8 weeks, adding or changing the medium every 3-4 days. After the skin organoids have matured, preferably presenting as hair-bearing skin organoids (e.g. hair placode present skin organoids), they are dissociated overnight in a 37 degree incubator in a Dispase solution. […]\nVarious commercially available cell culture media are marketed for the purpose of culturing human epidermal keratinocytes: EpiLife™ Defined Growth Supplement for use with EpiLife™ medium; Gibco™ Human Keratinocyte Growth Supplement for use with EpiLife medium or Medium 154; and Cnt-57 Epithelial Proliferation Medium. […] Population doublings were also assessed over several weeks for keratinocytes grown from various PSC lines in a culture medium of this disclosure in comparison to EpiLife EDGS and EpiLife HKGS. […]"}, "TP63": {"test_system": "TP63", "assay": "FACS analysis of TP63+ cells", "format": "cell-based, human", "conditions": "1C iPS derived skin organoid cells, HKGS medium with or without supplement (FIG. 12)", "excerpt": "WLS-1C iPS cells were formed into hair-bearing skin organoids as described herein and dissociated prior to plating the cells in EpiLife HKGS, or in EpiLife HKGS supplemented with the indicated small molecules. The cells were stained for TP63 expression and analyzed by FACS.\nThe ability of a commercially available medium to expand PSC-derived keratinocytes could be somewhat restored upon supplementation with one or more small molecule inhibitors, but not to the levels of DermaCult™ (FIG. 11). Specifically, HKGS medium was supplemented with A83-01, DAPT, Y-27632, or all three of A83-01, DAPT, and Y-27632. […] These findings were confirmed in a different experiment where 1C iPS cells were cultured in the foregoing media conditions and analyzed for p63 expression, to distinguish keratinocytes from other cell types included in the PSC-derived skin organoids, such as fibroblasts (FIG. 12)."}}}
{"smiles": "C[C@@H](N)[C@H]1CC[C@H](C(=O)Nc2ccncc2)CC1", "note": "[Y-27632]", "values": [{"measurement": "emergence of colonies in supplemented HKGS medium", "setting": "[1]", "result": "emergence of colonies"}, {"measurement": "emergence of p63+ cells", "setting": "TP63", "result": "emergence of comparable numbers of p63+ cells"}]}
